The values below come from paper PMC7660225, “New Chemical Probe Targeting Bacterial NAD Kinase” (Molecules, 2020).

The target of test [1] is T1, recombinant LmNADK1 (Listeria monocytogenes serovar 1/2a, UniProt Q8Y8D7).
T1 construct: made in house
T1 sequence (Q8Y8D7 1-264): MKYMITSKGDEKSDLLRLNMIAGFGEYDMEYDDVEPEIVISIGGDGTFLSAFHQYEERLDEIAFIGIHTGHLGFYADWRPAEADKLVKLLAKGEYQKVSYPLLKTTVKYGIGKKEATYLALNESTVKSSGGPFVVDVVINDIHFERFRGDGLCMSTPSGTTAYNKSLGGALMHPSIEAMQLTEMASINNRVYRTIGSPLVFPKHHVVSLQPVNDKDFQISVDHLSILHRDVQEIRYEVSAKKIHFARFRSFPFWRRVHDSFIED
Description: LmNADK1 inhibition, coupling assay (Ki measurements). The test is classed as biochemical. The note with it: for Ki: competitive inhibition fit, 30 °C, pH 7.0, inhibitor 0, 10, 25 or 50 µM, 0-2 mM NAD, 0.1 µM LmNADK1; for inhibitory potency compared to inhibitor 1 (NKI1): result in words. Here is the method: Another important parameter to select the chemical probe is that it retains its binding properties. The potency of ligands 2–5 as inhibitors of recombinant LmNADK1 in vitro were determined using the coupling assay described previously.
Activity was measured at 30 °C in 50 mM Bis-Tris pH 7.0, 2 mM sodium citrate, 1 mM MgCl2. Reaction mixtures contained 0–2 mM NAD, 4 mM MgATP, 5 mM Glucose 6-phosphate, 1 U/mL Glucose 6-phosphate dehydrogenase and 0.1 µM LmNADK1. Steady state rate constants (kss) were calculated by fitting the initial (first 500–1000 s) linear part of the NADP production time courses per NADK. Inhibitors were tested at 4 concentrations: 0, 10, 25 or 50 µM and Ki values were determined using the competitive inhibition equation, kss = kcat × NAD/(KM × (1 + [inhibitor]/Ki) + NAD), with GraFit software (v 7.0.3).
Figure 5 Determination of inhibition constants of compounds 1–5. Inhibitor concentrations were 0 (circles), 10 (triangles), 25 (squares) and 50 (stars) µM. Secondary plots (kss as a function of initial NAD concentration) were fitted assuming a competitive inhibition using GraFit software (v 7.0.3) and are presented here as double reciprocal plots. […] TEXT PRINTED IN THE PICTURE: NKI1: Ki (μM): 17.2 | 2: Ki (μM): 347 | 3: Ki (μM): 52.2 | 4: Ki (μM): 23.8 | 5: Ki (μM): 5.6

In test [2] the target is T2, crystallized LmNADK1 (Listeria monocytogenes serovar 1/2a, UniProt Q8Y8D7).
T2 construct: made in house
T2 sequence (Q8Y8D7 1-264): T1 sequence (Q8Y8D7 1-264)
Kind of test: X-ray crystallography of soaked LmNADK1 crystals. The test is classed as binding. The note with it: soaking procedure; structures refined to 2.2-2.4 Å. As to the method: A prerequisite to use a chemical probe is that it retains its binding affinity for its target. The binding properties of the four synthesized derivatives 2–5 were analyzed by X-ray crystallography. We checked the binding properties of these new di-adenosine derivatives by determining their complex with crystallized LmNADK1. The soaking procedure described previously for inhibitor 1 [18] was used to obtain crystals of the target in complex with compounds 2-5. The X-ray structures were solved by molecular replacement using PDB6RGC [18] as a starting template and refined to 2.2–2.4 Å resolution.

In test [3] the test system is S. aureus. Further details: method as in PMID 32017533. The note with it: including antibiotic-resistant strains; cited from earlier work.

Regarding `NCCNc1ncnc2c1ncn2C1OC(COCC#Cc2nc3c(N)ncnc3n2C2OC(CO)C(O)C2O)C(O)C1O` (centres unmarked) [Compound 2, 8-[3-(N^6-2-Aminoethyl-5’-O-adenosinyl)propargyl]adenosine], in test [1], the inhibitory constant (Ki) was 347 µM and the “inhibitory potency compared to inhibitor 1 (NKI1)” value is “sharp decrease in inhibitory potency”. The “complex formation / binding mode with crystallized LmNADK1” value (from here on “complex formation / binding mode”) in test [2] was “led to a complex with the target”.

For `NCCCCNc1ncnc2c1ncn2C1OC(COCC#Cc2nc3c(N)ncnc3n2C2OC(CO)C(O)C2O)C(O)C1O` (centres unmarked) [Compound 3, 8-[3-(N^6-4-Aminobutyl-5’-O-adenosinyl)propargyl]adenosine], in test [1], the Ki is 52.2 µM and the “inhibitory potency compared to inhibitor 1 (NKI1)” value was “sharp decrease in inhibitory potency”. Also, in test [2], the “complex formation / binding mode” value was “failed to yield complex”.

As for `NCCCC(=O)NCC1OC(n2c(C#CCOCC3OC(n4cnc5c(N)ncnc54)C(O)C3O)nc3c(N)ncnc32)C(O)C1O` (centres unmarked) [Compound 4, 5’-O-[3-(5’-(4-Aminobutylamido)-5’-deoxy-adenosin-8-yl)prop-2-yn-1-yl]-adenosine], in test [1], the Ki is 23.8 µM and the “inhibitory potency compared to inhibitor 1 (NKI1)” value is listed as “slightly reduced inhibitory potency”. Also, in test [2], the “complex formation / binding mode” value is given as “very similar to that of NKI1”.

With `NCCCN(CC#Cc1nc2c(N)ncnc2n1C1OC(CO)C(O)C1O)CC1OC(n2cnc3c(N)ncnc32)C(O)C1O` (centres unmarked) [Compound 5, 5’-[N-3-Aminopropyl-N-(3-(adenosin-8-yl)propargyl)amino]-5’-deoxyadenosine], in test [1], the Ki worked out at 5.6 µM and the “inhibitory potency compared to inhibitor 1 (NKI1)” value is “slightly increased”. For the same molecule, the “complex formation / binding mode” value in test [2] is given as “very similar to that of NKI1”.

`Nc1ncnc2c1ncn2C1OC(COCC#Cc2nc3c(N)ncnc3n2C2OC(CO)C(O)C2O)C(O)C1O` (centres unmarked) [NKI1]: the Ki in test [1] was determined as 17.2 µM. In addition, the “activity in mice infected with S. aureus” value in test [3] is on record as “active in mice infected with S. aureus”.
